Reference: ChEMBL document CHEMBL2424514, “Prediction of glucagon receptor antagonist activities of some substituted imidazoles using combined radial basis function neural network and density functional theory” (Med Chem Res, 2013)

Target: Glucagon receptor (Homo sapiens, UniProt P47871)
Experiment: Inhibition of human glucagon receptor expressed in CHO cell membranes by radioligand displacement assay
Assay type: cell-based

Glucagon receptor, sequence (P47871 whole entry): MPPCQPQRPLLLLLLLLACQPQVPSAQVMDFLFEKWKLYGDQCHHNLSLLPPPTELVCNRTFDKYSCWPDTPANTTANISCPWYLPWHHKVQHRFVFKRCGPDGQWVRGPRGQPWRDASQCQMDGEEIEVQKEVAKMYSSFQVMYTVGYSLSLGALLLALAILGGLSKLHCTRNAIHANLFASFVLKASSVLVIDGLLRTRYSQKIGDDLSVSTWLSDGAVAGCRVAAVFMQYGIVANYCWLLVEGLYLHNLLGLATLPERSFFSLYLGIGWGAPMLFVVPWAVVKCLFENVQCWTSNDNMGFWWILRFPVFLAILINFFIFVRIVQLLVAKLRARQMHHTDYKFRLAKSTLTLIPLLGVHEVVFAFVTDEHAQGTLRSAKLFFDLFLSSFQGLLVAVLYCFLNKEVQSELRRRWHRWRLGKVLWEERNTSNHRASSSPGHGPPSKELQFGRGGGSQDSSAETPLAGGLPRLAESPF

| Structure (SMILES) | IC50 |
| --- | --- |
| N#Cc1ccc(-c2nc(-c3ccncc3)c(-c3ccc(F)cc3)[nH]2)cc1 | 0.21 µM |
| Fc1ccc(-c2[nH]c(-c3cccc4ccccc34)nc2-c2ccncc2)cc1 | 0.34 µM |
| Clc1ccc(-c2nc(-c3ccncc3)c(-c3ccc(Oc4ccccc4)cc3)[nH]2)cc1 | 0.25 µM |
| CCCOc1ccc(-c2[nH]c(-c3ccc(Cl)cc3)nc2-c2ccncc2)c(OCCC)c1 | 2.4 µM |
| Brc1ccc(-c2nc(-c3ccccc3)c(-c3ccccc3)[nH]2)cc1 | 2.2 µM |
| Clc1ccc(-c2nc(-c3ccc(-c4ccccc4)cc3)c(-c3ccncc3)[nH]2)cc1 | 3.3 µM |
| CSc1ccc(-c2nc(-c3ccncc3)c(-c3ccc(F)cc3)n2C)cc1 | 0.861 µM |
| Fc1ccc(-c2[nH]c(-c3ccc(-c4ccccc4)cc3)nc2-c2ccncc2)cc1 | 0.301 µM |
| Clc1ccc(-c2nc(-c3ccncc3)c(-c3cccc(Oc4ccccc4)c3)[nH]2)cc1 | 0.22 µM |
| CC(C)c1ccc(-c2nc(-c3ccc(F)cc3)c(-c3ccncc3)[nH]2)cc1 | 0.281 µM |
| Fc1ccc(-c2[nH]c(-c3ccc(Br)o3)nc2-c2ccncc2)cc1 | 0.19 µM |
| Clc1ccc(-c2nc(-c3cccc(-c4ccccc4)c3)c(-c3ccncc3)[nH]2)cc1 | 0.59 µM |
| CSc1ccc(-c2nc(-c3ccc(F)cc3)c(-c3ccncc3)o2)cc1 | 0.931 µM |
| CSc1ccc(-c2nc(-c3ccc(F)cc3)c(-c3ccncc3)n2C)cc1 | 0.521 µM |

These reach a lower IC50. Values come first.

| IC50 | Structure (SMILES) |
| --- | --- |
| 0.0401 µM | Brc1ccc(-c2nc(-c3ccncc3)c(-c3ccccc3)[nH]2)cc1 |
| 0.1 µM | Fc1ccc(-c2[nH]c(-c3ccc(I)cc3)nc2-c2ccncc2)cc1 |
| 0.0802 µM | Fc1ccc(-c2nc(-c3ccc(Cl)cc3)[nH]c2-c2ccncc2)cc1 |
| 0.15 µM | Clc1ccc(-c2nc(-c3ccncc3)c(-c3ccccc3Oc3ccccc3)[nH]2)cc1 |
| 0.14 µM | Clc1ccc(-c2nc(-c3ccc(I)cc3)c(-c3ccncc3)[nH]2)cc1 |
| 0.05 µM | Cc1cc(-c2[nH]c(-c3ccc(Cl)cc3)nc2-c2ccc(F)cc2)ccn1 |
| 0.0902 µM | Cc1ccc(-c2nc(-c3ccc(F)cc3)c(-c3ccncc3)[nH]2)cc1 |
| 0.1 µM | Oc1ccc(-c2[nH]c(-c3ccc(Br)cc3)nc2-c2ccccc2)cc1 |
| 0.02 µM | Cc1cnccc1-c1nc(-c2ccc(Cl)cc2)[nH]c1-c1ccc(F)cc1 |
| 0.11 µM | Fc1ccc(-c2[nH]c(-c3ccc(Br)s3)nc2-c2ccncc2)cc1 |
| 0.023 µM | Clc1ccc(-c2nc(-c3ccncc3)c(-c3ccc(Cl)cc3)[nH]2)cc1 |
| 0.15 µM | Fc1ccc(-c2[nH]c(-c3cccc(Br)c3)nc2-c2ccncc2)cc1 |
| 0.0902 µM | Fc1ccc(-c2[nH]c(-c3ccccc3Br)nc2-c2ccncc2)cc1 |
| 0.16 µM | Fc1ccc(-c2nc(-c3ccc(Br)cc3)[nH]c2-c2ccncc2)cc1 |
| 0.12 µM | Fc1ccc(-c2[nH]c(CCc3ccccc3)nc2-c2ccncc2)cc1 |
